The test system of data set [1] is oilseed rape. The data set is described as follows: Safening oilseed rape using a variety of safening compounds of classes (a) to (f) with herbicides. The note with it: herbicide Bifenox (with insecticide cypermethrin). It counts as in vivo. From the text:
Safening compounds were selected from the list of compounds below. The compounds used are highlighted in bold. • (a) Glucose (GL), hydrolysed starch, sucrose (S), fructose (FR), glycerol (G), glyceraldehydes, erythrose, ribulose, xylulose or arabinose or an ester or glycoside or metabolic equivalent of such a carbohydrate; • (b) an organic acid of the Krebs Tricarboxylic Acid Cycle or a metabolic precursor thereof (including citric (C), succinic (SU), malic, pyruvic, acetic and fumaric acids); • (c) a vitamin or coenzyme, eg thiamine (T), riboflavin (R), pyridoxine (P), pyridoxamine, pyridoxal, nicotinamide (N), folic acid (F), ascorbic acid (AA), Biotin (B) and vitamin B12 (B12) or a precursor thereof including nicotinic acid • (d) a purine or pyrimidine nucleoside, nucleotide or a metabolic precursor thereof, eg adenine, adenosine, thymine, thymidine, cytosine, guanine, guanosine, hypoxanthine, uracil, uridine or inosine, to act as structural precursors for nucleic acid synthesis. • (e) a naturally occurring fat or oil including olive, soya, coconut and corn (Oil) oils; • (f) an amino acid of a type that occurs naturally in plant proteins, eg glycine (GLY), alanine (AL), valine, leucine (LE), isoleucine, serine, threonine (THR), cysteine (CY), methionine (ME), aspartic acid, glutamic acid, glutamine (GLU), asparagine (AS), lysine (LY), hydroxylysine, arginine, histidine, phenylalanine, tyrosine, tryptophan, proline, or hydroxyproline. Statistical Layout: Randomised Complete Block trial, under glasshouse conditions, United Kingdom.

For data set [2], the system named is Winter wheat cv Alchemy. Description: Safening of herbicides from addition of auxin/auxin precursor and acetaminophen, winter wheat. The note with it: auxins/precursors 10^-2 Molar, AC 3 g per hectare, 0-9 scale, 0=dead plant.
Data set [3] relates to Glycine max (Soybean). The data set is described as follows: Root nodulation and safening, soybean, compost of normal pH (Example 7.2). The conditions noted are these: compost of normal pH (6.5). From the text:
(§1) The safener/safening system and the fertiliser were applied to the crops either simultaneously or sequentially.
(§2) Co=100% Cobalt Sulphate (20 g per litre and per hectare). FF1=20 g per litre Cobalt Sulphate (as per Co above) plus “Miracle-Gro” at xl recommended rate (applied at 15 g per 2.5 sq metres). Miracle-Gro contains: 24% N, 4% P, 13% K, plus 0.02% B, 0.03% Cu, 0.19% Fe, 0.05% Mn, 0.001% Mo and 0.03% Zn. FF2=20 g per litre Cobalt Sulphate plus Miracle-Gro at ×2 recommended rate. SAF: at least one from class (f) each at <3 g/l, plus at least one from class (c).
Dates as per Example 7.1 above, but sown in compost of normal pH (6.5). Each treatment represents the mean values for 12 plants, within four replicates. Sowing density 110 kg/ha. Standard inoculant applied at sowing.

Data set [4] relates to Soybean. Description: Root nodulation and safening, soybean, compost of low pH (Example 7.1).
Description: as §1, §2
Scored/Counted+28 Days After Spraying. Sown in Compost of low pH (5.0-5.5) on 1 May 2008. Spray Date (VC)=4 June, V1 Date=20 June. Scored/Measured on 17 July. […] Seed density approx 110 kg/ha. Soybean treated with standard inoculant at sowing.

Data set [5] relates to NAVY BEAN cv Mogex. The data set is described as follows: Root nodulation and safening, navy bean, compost of low pH (Example 7.3). The note with it: compost of low pH (5.0-5.5).
Description: as §1, §2
NAVY BEAN cv Mogex. Scored/Counted+28 Days after Spraying. Sown in Compost of low pH (5.0-5.5) on 29 Apr. 2008. Spray Date (VC)=27 May, V1 Date=16 June. Scored/Measured on 11 July. Each treatment represents the mean value of 12 plants, within four replicates. No inoculum applied.

The subject of data set [6] is NAVY BEAN cv Mogex. The data set is described as follows: Root nodulation and safening, navy bean, compost of normal pH (Example 7.4). The conditions noted are these: compost of normal pH (6.5).
Description: as §1, §2
NAVY BEAN cv Mogex. Scored/Counted+28 Days after Spraying. Dates as per Example 7.3 Above, but sown in compost of normal pH (6.5). Each treatment represents the mean value from 12 plants, within four replicates. No inoculum applied.

The test system of data set [7] is PEA cv Ragtime. Description: Root nodulation and safening, pea, compost of normal pH (Example 7.6). The conditions noted are these: compost of normal pH (6.5).
Description: as §1, §2
PEA—TRIAL 7.6—cv Ragtime. Dates as per Example 7.5 above, but sown in compost of normal pH (6.5). […] No inoculum was applied.

In data set [8] the test system is PEA cv Ragtime. Description: Root nodulation, rooting and safening, pea, compost of low pH (Examples 7.5 and 7.7).
Description: as §1, §2
PEA—TRIAL 5—cv Ragtime. Scored/Counted+28 Days after Spraying. Sown in Compost of Low pH (5.0-5.5) on 28 Apr. 2008. Spray Date (VC)=26 May, V1 Date=14 June. Scored/Measured on 9 July. […] No inoculum applied.
Sowing details etc as per Example 7.5.

The mark [9] stands for this setting: Soybean, compost of low pH (5.0-5.5), V1, score 0-9.
Setting [10] is: V1, +28 days after spraying, no inoculum.
[11] abbreviates: compost of low pH (5.0-5.5), V1, score 0-9.
The mark [12] stands for this setting: low pH compost, application at V1, 0-9 scale.

`Nc1ccccc1C(=O)O` [2. AN (Anthranilic Acid)]: in data set [1] (score 0-9, 0 = Dead, 14 days), the “Phytotoxicity (0-9) (0 = Dead) + 14 Days” value stood at 8.0 and the “Vigour (0-9) (0 = Dead) + 14 days” value is recorded as 8.0. In data set [1] (score 0-9, 0 = Dead, 28 days), the “Phytotoxicity (0-9) (0 = Dead) + 28 Days” value was determined as 8.0 and the “Vigour (0-9) (0 = Dead) + 28 Days” value came out at 8.0. For the same compound, the “Rooting (0-9) (9 = Best Rooting) + 28 Days” value in data set [1] (score 0-9, 9 = Best Rooting, 28 days) is recorded as 8.0.
As for `Nc1ccccc1C(=O)O` [Anthranilic acid (AN)], in data set [2] (14 days after spraying), the “Phytotoxicity (0-9) (0 = Dead) + 14 Days” value is recorded as 8.0. Further, in data set [2] (28 days after spraying), the “Phytotoxicity (0-9) (0 = Dead) + 28 Days” value stood at 8.0.
Take `O=S(=O)([O-])[O-].[Co+2]` [cobalt, Cobalt Sulphate]: the “Nodules Per Plant (V1)” value turned out to be 29.8 in data set [3] (V1, mean of 12 plants); 27.3 in data set [4] (Soybean, compost of low pH (5.0-5.5), V1, +28 days after spraying, mean of 12 plants); 21.0 in data set [5] (setting [10]); 33.5 in data set [6] (setting [10]); 16.9 in data set [7] (V1, no inoculum); 16.4 in data set [8] (compost of low pH (5.0-5.5), V1, +28 days after spraying, no inoculum). In data set [8] (low pH compost, application at V1 (data from Example 7.5)), the “Nodules Per Plant (V1)” value amounted to 16.4. In addition, the “Nodulation Score (0-9) (V1)” value stood at 5.5 in data set [3] (V1, score 0-9); 5.2 in data set [4] (setting [9]); 3.3 in data set [5] (V1, score 0-9); 5.2 in data set [6] (V1, score 0-9); 5.1 in data set [7] (V1, score 0-9); 5.0 in data set [8] (setting [11]). Besides, the “Nodulation Score (0-9) (V1)” value in data set [8] (setting [12]) is 5.0. Further, the “Phyto-Toxicity Score (0-9) (V1)” value in data set [3] (V1, score 0-9) is 8.0; in data set [4] (setting [9]), 7.8; in data set [5] (V1, score 0-9), 5.7; in data set [6] (V1, score 0-9), 7.3; in data set [7] (V1, score 0-9), 6.9; in data set [8] (setting [11]) it was 5.1. Besides, the “Phyto-Toxicity Score (0-9) (V1)” value in data set [8] (setting [12]) was 5.1. Further, the “Vigour Score (0-9) (V1)” value is listed as 6.5 in data set [3] (V1, score 0-9); 6.0 in data set [4] (setting [9]); 5.9 in data set [5] (V1, score 0-9); 7.2 in data set [6] (V1, score 0-9); 6.8 in data set [7] (V1, score 0-9); 5.8 in data set [8] (setting [11]). Moreover, the “Nodules Per Plant (VC)” value in data set [3] (VC) was 28.0; in data set [4] (Soybean, compost of low pH (5.0-5.5), VC, +28 days after spraying), 28.8; in data set [5] (VC), 23.8; in data set [6] (VC) it was 31.8; in data set [7] (VC) it was 17.4; in data set [8] (compost of low pH (5.0-5.5), VC), 18.1. Also, the “Nod Score (0-9) (VC)” value in data set [3] (VC, score 0-9) was 5.3; in data set [4] (Soybean, compost of low pH (5.0-5.5), VC, score 0-9), 5.4; in data set [5] (VC, score 0-9) it was 3.8; in data set [6] (VC, score 0-9) it was 5.0; in data set [7] (VC, score 0-9), 5.2; in data set [8] (compost of low pH (5.0-5.5), VC, score 0-9) it was 5.3. Besides, in data set [4] (nitrogen fixing crops), the nodulation result is recorded as “increases nodulation”. Also, in data set [8] (setting [12]), the “Rooting Score (0-9) (V1)” value worked out at 4.2.
